# Experimental data as given in the supplement of paper PMC8633005.
# Key:
# Assay in all cases: drug sensitivity score (DSS) (DSS (unitless, 0-50 scale)); higher = more sensitive (stronger viability inhibition); extreme values may be limits of the assay
# Conditions in all cases: 72 h; culture: 2D
# FM-MEL-2 = test system: FM-MEL-2
# How it was run: (§1)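 A 527-compound oncology library was screened in 384-well plates against melanoma cell lines and patient-derived melanoma cultures grown in 2D, the cultures at 1000–1500 cells per well. Each compound, in DMSO or water, was applied at five concentrations over a 10,000-fold range and incubated for 72 h at 37 °C before CellTiter-Glo luminescence readout of viability. A drug sensitivity score, a modified area-under-curve measure, was calculated from curves fitted in the in-house Breeze software.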
# FM-MEL-6 = test system: FM-MEL-6
# How it was run: as §1
# Bowes = test system: Bowes
# How it was run: as §1
# FM-MEL-3 = test system: FM-MEL-3
# How it was run: as §1
# SK-MEL-2 = test system: SK-MEL-2
# How it was run: as §1
# WM852 = test system: WM852
# How it was run: as §1
# SK-MEL-28 = test system: SK-MEL-28
# How it was run: as §1
# WM165 = test system: WM165
# How it was run: as §1
SMILES,drug sensitivity score (FM-MEL-2),drug sensitivity score (FM-MEL-6),drug sensitivity score (Bowes),drug sensitivity score (FM-MEL-3),drug sensitivity score (SK-MEL-2),drug sensitivity score (WM852),drug sensitivity score (SK-MEL-28),drug sensitivity score (WM165)
NC1(c2ccc(-c3nc4ccn5c(=O)[nH]nc5c4cc3-c3ccccc3)cc2)CCC1 [MK-2206],2.6,1.9,0,0.9,0,0.4,2,1.1
CC1(C)CC[C@]2(NC(=O)C(C)(F)F)CC[C@]3(C)[C@H](C(=O)C=C4[C@@]5(C)C=C(C#N)C(=O)C(C)(C)[C@@H]5CC[C@]43C)[C@@H]2C1 [Omaveloxolone],11.2,13.9,18.2,17.4,15.7,11.3,15.5,20.3
O=C(c1ccc(C(=O)N2CCC(N3CCCC3)CC2)c(Nc2ccccc2)c1)N1CCC(N2CCCC2)CC1 [UNC1215],0,0,0,0,0,0,0,0
Cc1[nH]nc(C(F)(F)F)c1Cc1sc2c(c1C(=O)N1C[C@](C)(O)CO1)c(=O)n(C)c(=O)n2C(C)C [AZD3965],0,0.3,8,0,0,0,0,0
O=C(Nc1cc(Oc2cc(F)c(NC(=O)C3(C(=O)Nc4ccc(F)cc4)CC3)cc2F)ccn1)C1CC1 [Altiratinib],6.2,7.7,6.4,9,0,6.1,0,5
CCCCC(=O)OCC(=O)[C@]1(O)Cc2c(O)c3c(c(O)c2[C@@H](O[C@H]2C[C@H](NC(=O)C(F)(F)F)[C@H](O)[C@H](C)O2)C1)C(=O)c1c(OC)cccc1C3=O [Valrubicin],6.8,9.2,6.4,7.2,8.5,5.1,8.3,21.5
CC1=C2C[C@H]3[C@@H](CC[C@@H]4C[C@H](NS(C)(=O)=O)CC[C@@]43C)[C@@H]2CC[C@@]2(C1)O[C@@H]1C[C@H](C)CN[C@H]1[C@H]2C [Saridegib],0,0,0,0,0,0,0,0.5
COC(=O)N[C@@H](C)CNc1nccc(-c2cn(C(C)C)nc2-c2cc(Cl)cc(NS(C)(=O)=O)c2F)n1 [Encorafenib],1.3,0,0.5,1.9,1.1,1.4,19.6,19.2
O=C(NOC[C@H](O)CO)c1ccc(F)c(F)c1Nc1ccc(I)cc1F,14.5,11.4,0.5,26.8,11.1,3.8,18,18.6
C/C(=C\c1csc(C)n1)[C@@H]1C[C@@H]2O[C@]2(C)CCC[C@H](C)[C@H](O)[C@@H](C)C(=O)C(C)(C)[C@@H](O)CC(=O)N1 [Ixabepilone],0.8,3.7,8.5,5,2.9,6.1,2.3,3.6
NC(=O)NO [Hydroxyurea],0,2.2,2.4,6.8,0,0,0,0.1
Clc1ccc(Nc2nnc(Cc3ccncc3)c3ccccc23)cc1 [Vatalanib],0,0,0,0,0,0,0,0
COc1cc(OC)cc(N(CCNC(C)C)c2ccc3ncc(-c4cnn(C)c4)nc3c2)c1 [Erdafitinib],0,0,2.4,0,0,0.8,0,0
O=C(Nc1cccc(Nc2ncc(Br)c(NCCc3cnc[nH]3)n2)c1)N1CCCC1 [BX-912],5.9,0.5,5.6,0.9,0,1.9,1.9,8.2
N[C@@H]1CCCN(c2c(/C=C3\SC(=O)NC3=O)cccc2-c2ccccc2)C1 [AZD1208],2.8,0.8,0,2,0,0,0.4,0
